Data as given in US8536202B2, “Triazole-substituted anthranilamides as pesticides” (Bayer Cropscience AG, priority 2010, dated 2013).
Read-outs that look alike come from different tables or passages of the source.

Key:
[1] = log P determination by HPLC on reversed-phase columns (EEC Directive 79/831 Annex V.A8); format: physicochemical; conditions: pH 2.7
Outline: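 log P from reversed-phase LC-MS retention at pH 2.7, 0.1% formic acid water/acetonitrile gradient 10–95% acetonitrile. Calibrated against C3–C16 unbranched alkan-2-ones, interpolating linearly between adjacent alkanones.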

[2] = system: larvae of the mustard beetle (Phaedon cochleariae); test: Phaedon test (PHAECO spray treatment); format: in vivo; conditions: 168 h, read-out: activity in %
Outline: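 Compound dissolved in acetone/dimethylformamide with alkylaryl polyglycol ether emulsifier, then diluted with emulsifier-containing water to test concentration for spray treatment of Phaedon cochleariae larvae. Activity scored after 7 days as % larvae killed (100% = all dead, 0% = none).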

[3] = system: green peach aphid (Myzus persicae); test: Myzus test (MYZUPE spray treatment), Use Example 4; format: in vivo; conditions: 144 h, read-out: activity in %
Outline: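 Compound was formulated in acetone/dimethylformamide with alkylaryl polyglycol ether emulsifier and diluted in emulsifier-containing water. It was sprayed onto Chinese cabbage leaf discs infested with all stages of Myzus persicae. Mortality (%) was scored after 6 days, where 100% means all aphids killed.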

[4] = system: caterpillars of the armyworm (Spodoptera frugiperda); test: Spodoptera frugiperda test (SPODFR spray treatment); format: in vivo; conditions: 168 h, read-out: activity in %
Outline: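 Maize leaf discs sprayed with compound diluted in emulsifier-containing water (acetone/DMF solvent, alkylaryl polyglycol ether emulsifier), dried, then infested with armyworm caterpillars. Kill scored after 7 days as % mortality, 100% = all caterpillars dead, 0% = none.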

[5] = HPLC on reversed-phase columns (C 18), EEC Directive 79/831 Annex V.A8, read-out: logP
[6] = reversed-phase C18 HPLC column, HPLC on reversed-phase columns (C 18), EEC Directive 79/831 Annex V.A8, read-out: logP

| chromatographic logP [1, 6] | Structure (SMILES) | chromatographic logP [1, 5] | pest or weed control at 100 g/ha [2] | pest or weed control at 100 g/ha [3] | pest or weed control at 100 g/ha [4] | chromatographic logP [1] | pest or weed control at 100 g/ha ([2]; 100 g/ha, after 7 days) | pest or weed control at 100 g/ha ([3]; 100 g/ha, after 6 days) | pest or weed control at 100 g/ha ([4]; 100 g/ha, after 7 days) |
| --- | --- | --- | --- | --- | --- | --- | --- | --- | --- |
|  | CNC(=O)c1cc(I)cc(C)c1NC(=O)c1cc(Cn2cc(C(F)(F)C(F)(F)C(F)(F)F)nn2)nn1-c1ncccc1Cl [Example 337] | 3.59 | 100% | 100% | 100% |  |  |  |  |
|  | Cc1cc(Cl)cc(C(=O)NC(C)(C)C)c1NC(=O)c1cc(Cn2nc(C(F)(F)F)c(C(F)(F)F)n2)nn1-c1ncccc1Cl [Example 393] |  |  |  |  | 4.59 | 100% | 90% | 100% |
|  | CSC[C@H](C)NC(=O)c1cc(Cl)cc(C)c1NC(=O)c1cc(Cn2ncc(C(F)(F)C(F)(F)F)n2)nn1-c1ncccc1Cl [Example 348] |  |  |  |  | 4.1 | 100% | 80% | 100% |
|  | Cc1cc(Cl)cc(C(N)=O)c1NC(=O)c1cc(Cn2cc(C(F)(F)C(F)(F)F)nn2)nn1-c1ncccc1Cl [Example 306] |  |  |  |  | 2.78 | 100% | 100% | 100% |
|  | Cc1cc(I)cc(C(N)=O)c1NC(=O)c1cc(Cn2cc(C(F)(F)C(F)(F)C(F)(F)F)nn2)nn1-c1ncccc1Cl [Example 332] | 3.35 | 100% | 100% | 100% |  |  |  |  |
|  | Cc1cc(C#N)cc(C(=O)NC2CC2)c1NC(=O)c1cc(Cn2cc(C(F)(F)C(F)(F)F)nn2)nn1-c1ncccc1Cl [Example 318] |  |  |  |  | 2.89 | 100% | 100% | 100% |
|  | Cc1cc(C#N)cc(C(=O)NC(C)C2CC2)c1NC(=O)c1cc(Cn2cc(C(F)(F)F)nn2)nn1-c1ncccc1Cl (centres unmarked) [Example 178] |  |  |  |  | 2.95 | 100% | 100% | 100% |
|  | CCNC(=O)c1cc(Cl)cc(C)c1NC(=O)c1cc(Cn2cc(C(F)(F)C(F)(F)C(F)(F)F)nn2)nn1-c1ncccc1Cl [Example 341] | 3.62 | 100% | 100% | 100% |  |  |  |  |
|  | CNC(=O)c1cc(Cl)cc(C)c1NC(=O)c1cc(Cn2cc(C(F)(F)C(F)(F)C(F)(F)F)nn2)nn1-c1ncccc1Cl [Example 328] | 3.38 | 100% | 100% | 100% |  |  |  |  |
|  | Cc1cc(Cl)cc(C(=O)NC(C)C2CC2)c1NC(=O)c1cc(Cn2cc(C(F)(F)C(F)(F)C(F)(F)F)nn2)nn1-c1ncccc1Cl (centres unmarked) [Example 327] | 4.15 | 100% | 100% | 100% |  |  |  |  |
|  | CSC[C@H](C)NC(=O)c1cc(I)cc(C)c1NC(=O)c1cc(Cn2ncc(C(F)(F)C(F)(F)C(F)(F)F)n2)nn1-c1ncccc1Cl [Example 373] | 4.65 | 100% | 100% | 100% |  |  |  |  |
|  | CCNC(=O)c1cc(Cl)cc(C)c1NC(=O)c1cc(Cn2ncc(C(F)(F)C(F)(F)F)n2)nn1-c1ncccc1Cl [Example 350] |  |  |  |  | 3.66 | 100% | 80% | 100% |
|  | Cc1cc(Cl)cc(C(N)=O)c1NC(=O)c1cc(Cn2cc(C(F)(F)C(F)(F)C(F)(F)F)nn2)nn1-c1ncccc1Cl [Example 338] | 3.13 | 100% | 100% | 100% |  |  |  |  |
| 3.3 | CCNC(=O)c1cc(C#N)cc(C)c1NC(=O)c1cc(Cn2ncc(C(F)(F)F)n2)nn1-c1ccccc1Cl [Example 288] |  |  |  |  |  | 100% | 100% | 100% |
|  | CNC(=O)c1cc(C#N)cc(C)c1NC(=O)c1cc(Cn2ncc(C(F)(F)C(F)(F)F)n2)nn1-c1ncccc1Cl [Example 365] |  |  |  |  | 3.04 | 100% | 100% | 100% |
|  | CNC(=O)c1cc(C#N)cc(C)c1NC(=O)c1cc(Cn2cc(C(F)(F)C(F)(F)C(F)(F)F)nn2)nn1-c1ncccc1Cl [Example 343] | 3.04 | 100% | 100% | 100% |  |  |  |  |

| chromatographic logP [1, 6] | Structure (SMILES) | chromatographic logP [1, 5] | pest or weed control at 100 g/ha [2] | pest or weed control at 100 g/ha [3] | pest or weed control at 100 g/ha [4] | chromatographic logP [1] | pest or weed control at 100 g/ha ([2]; 100 g/ha, after 7 days) | pest or weed control at 100 g/ha ([3]; 100 g/ha, after 6 days) | pest or weed control at 100 g/ha ([4]; 100 g/ha, after 7 days) |
| --- | --- | --- | --- | --- | --- | --- | --- | --- | --- |
|  | Cc1cc(I)cc(C(=O)NC(C)C2CC2)c1NC(=O)c1cc(Cn2cc(C(F)(F)C(F)(F)F)nn2)nn1-c1ncccc1Cl (centres unmarked) [Example 309] |  |  |  |  | 4.03 | 100% | 80% | 100% |
|  | CNC(=O)c1cc(Cl)cc(Cl)c1NC(=O)c1cc(Cn2cc(C(F)(F)F)nn2)nn1-c1ncccc1Cl [Example 197] |  |  |  |  | 2.59 | 100% | 90% | 100% |
| 4.04 | CSC[C@H](C)NC(=O)c1cc(Cl)cc(C)c1NC(=O)c1cc(Cn2cc(C(F)(C(F)(F)F)C(F)(F)F)nn2)nn1-c1ncccc1Cl [Example 230] |  |  |  |  |  | 100% | 80% | 100% |
| 2.66 | CNC(=O)c1cc(C#N)cc(C)c1NC(=O)c1cc(Cn2cc(C(F)(F)F)nn2)nn1-c1ncccc1Br [Example 5] |  |  |  |  |  | 100% | 100% | 100% |
|  | Cc1cc(C#N)cc(C(=O)NC(C)(C)C)c1NC(=O)c1cc(Cn2cc(C(F)(F)F)nn2)nn1-c1ncccc1Cl [Example 182] |  |  |  |  | 2.97 | 100% | 100% | 100% |
|  | Cc1cc(I)cc(C(=O)NC(C)(C)C)c1NC(=O)c1cc(Cn2ncc(C(F)(F)C(F)(F)F)n2)nn1-c1ncccc1Cl [Example 356] |  |  |  |  | 4.47 | 100% | 80% | 100% |
| 3.52 | Cc1cc(C#N)cc(C(=O)NCC2CC2)c1NC(=O)c1cc(Cn2cc(C(F)(C(F)(F)F)C(F)(F)F)nn2)nn1-c1ncccc1Cl [Example 221] |  |  |  |  |  | 100% | 80% | 100% |
|  | CNC(=O)c1cc(Cl)cc(C)c1NC(=O)c1cc(Cn2cc(C(F)(F)C(F)(F)F)nn2)nn1-c1ncccc1Cl [Example 299] |  |  |  |  | 3.02 | 100% | 80% | 100% |
|  | Cc1cc(Cl)cc(C(=O)NCC2CC2)c1NC(=O)c1cc(Cn2ncc(C(F)(F)C(F)(F)F)n2)nn1-c1ncccc1Cl [Example 349] |  |  |  |  | 3.96 | 100% | 80% | 100% |
|  | Cc1cc(I)cc(C(N)=O)c1NC(=O)c1cc(Cn2cc(C(F)(F)C(F)(F)F)nn2)nn1-c1ncccc1Cl [Example 315] |  |  |  |  | 2.98 | 100% | 90% | 100% |
|  | CSC[C@H](C)NC(=O)c1cc(Cl)cc(C)c1NC(=O)c1cc(Cn2cc(C(F)(F)F)nn2)nn1-c1ncccc1Cl [Example 194] |  |  |  |  | 3.35 | 100% | 100% | 100% |
|  | Cc1cc(Cl)cc(C(=O)NC(C)(C)C)c1NC(=O)c1cc(Cn2ncc(C(F)(F)C(F)(F)F)n2)nn1-c1ncccc1Cl [Example 360] |  |  |  |  | 4.27 | 100% | 80% | 100% |
|  | Cc1cc(I)cc(C(=O)NC(C)C)c1NC(=O)c1cc(Cn2cc(C(F)(F)C(F)(F)F)nn2)nn1-c1ncccc1Cl [Example 312] |  |  |  |  | 3.73 | 100% | 80% | 100% |
|  | CNC(=O)c1cc(Cl)cc(C)c1NC(=O)c1cc(Cn2ncc(C(F)(F)C(F)(F)F)n2)nn1-c1ncccc1Cl [Example 352] |  |  |  |  | 3.4 | 100% | 80% | 100% |
| 3.96 | Cc1cc(C#N)cc(C(=O)NC(C)(C)C)c1NC(=O)c1cc(Cn2nnc3c(Cl)cc(C(F)(F)F)cc32)nn1-c1ncccc1Cl [Example 110] |  |  |  |  |  | 100% | 90% | 100% |
| 3.44 | Cc1cc(C#N)cc(C(=O)NC(C)C)c1NC(=O)c1cc(Cn2cc(C(F)(C(F)(F)F)C(F)(F)F)nn2)nn1-c1ncccc1Cl [Example 219] |  |  |  |  |  | 100% | 80% | 100% |
